Reference: patent US20090023685A1, “Nebulized or Sprayed Cidofovir for Recurrent Respiratory Papillomatosis” (priority 2007, published 2009)
“Also recorded” adds a separate entry of the source.

Test system: Recurrent Respiratory Papillomatosis due to Human Papillomavirus subtype 6 (HPV-6)
Test: Case report: systemic, topical and nebulized cidofovir in a young child with recurrent respiratory papillomatosis
Type: in vivo
Description: We decided that applying cidofovir using a flexible bronchoscope and a cytology brush soaked in cidofovir would be a reasonable method to attempt to deliver the drug to the papillomas. We used the intravenous form of the drug, diluted to the concentration used in the gel based formula.
Therefore, we made a 4 ml solution at the same concentration we were using for the topical application.
Therefore, we elected to nebulize the drug (Cidofovir 10 mg/ml in NS, 4 cc, 3 times/week).
Background: a person is an ex-prem (24 week GA) born to a mom who had antenatal bleeding and had been given steroids prior to delivery. Their postnatal course was complicated by Respiratory distress syndrome (mechanical ventilation for 52 days, CPAP for 28 days and O2 for 30 days), a patent ductus arteriousus (indomethacin & surgical ligation), hemodynamic instability necessitating inotropic support and renal failure. Following discharge home a person had severe GERD, (L) inguinal hernia repair and was described to have colic.
Presentation: At 10½ months of age, they presented to the Children's Hospital Emergency Room with increasing difficulties breathing. […] They were admitted to hospital and subsequently transferred to the Pediatric intensive care unit. They were diagnosed with upper airway obstruction and treated with Heliox (80:20) and nebulized racemic epinephrine. […] They underwent tracheostomy.
Initial management: Suspension laryngoscopy with CO2 laser for debulking papillomas was performed ×6 (locally) and ×2 (larger tertiary centre) (FIG. 1b). […] Palliation was discussed with the […].
Adjuvant therapy: Medical management was initiated 6 months into treatment.
Topical and nebulized cidofovir: The patient was started on topically applied cidofovir via flexible bronchoscopy q2 weeks in addition to continuing the intravenous (systemic) dose. A cytology brush was soaked in cidofovir 10 mg/ml solution and advanced via the bronchoscope to the lower airway papillomas (FIG. 2a). We elected to start nebulized cidofovir to reduce the frequency of Bronchoscopic procedures and to intensify treatment. […] After 6 months of nebulized cidofovir, the dose was reduced to 2× weekly.
Current status: A large papilloma was surgically debulked (microdebridment) and topical cidofovir was topically applied to the base of the lesion. […] undergoes surveillance bronchoscopy q3 months and continues on nebulized cidofovir 5 mg/ml, 4 cc 2× weekly (FIGS. 2c and 3b).

Nc1ccn(C[C@@H](CO)OCP(=O)(O)O)c(=O)n1 [cidofovir]
current disease status (after nebulized cidofovir, surgical debulking of a large papilloma and topical cidofovir to its base): papilloma free; also recorded: Her disease has remitted | effect on papillomatosis (intravenous (systemic) cidofovir 4.1 mg/kg/dose every 4 weeks): without effect | effect in the lung (CT scans) (nebulized cidofovir): improvement in the lung | complications / side effects (nebulized cidofovir 10 mg/ml, 4 ml (total dose 40 mg), 3× weekly): bleeding (dose dependent & related to infection with bacteria; also recorded: cough | complications / side effects (nebulized cidofovir 10 mg/ml, 4 ml (total dose 40 mg), 3× weekly, listed as Cidofovir): hemoptysis; also recorded: bleeding and protracted airways inflammation | complications / side effects (nebulized cidofovir after the dose was reduced (5 mg/ml; later 2 times/week)): resolution of the complications | complications / side effects (nebulized cidofovir after the dose was reduced (5 mg/ml; later 2 times/week), listed as Cidofovir): without complications | effect on lower airway papillomas (nebulized cidofovir in saline, 4 ml, 2-3 times/week): worked well; also recorded: reduction of the burden of the papillomas | effect on lower airway papillomas (nebulized cidofovir in saline, 4 ml, 2-3 times/week, listed as Cidofovir): lower airway lesions have visually disappeared | papillomas in the main airway (trachea) (nebulized cidofovir, droplet size 2-4 microns): remained large | course of disease (systemic cidofovir q2 weeks plus Interferon α2b 5 MU/m^2 3× weekly, listed as Cidofovir): did not halt the progression of the disease | course of lesions (systemic cidofovir stepped down to q3 weeks (with Interferon α2b)): the lesions worsened | effect on lower airway papillomas (topical cidofovir (10 mg/ml, thickened with sterile glycerine) applied by cytology brush via flexible bronchoscopy every 2 weeks): worked to reduce the size of the papillomas | effect on lower airway papillomas (topical cidofovir (10 mg/ml, thickened with sterile glycerine) applied by cytology brush via flexible bronchoscopy every 2 weeks, listed as Cidofovir): The lesions regressed
